“Also recorded” adds a separate entry of the source.
Tested on: purines in urine
Experiment: Purines in urine by mass spectrometry
Format: in vivo, rat
Conditions: aged rats, oral 8-AG 5 mg/kg/day, 6 weeks
Description: Protocol 2: Purines in urine were measured by mass spectrometry using selected reaction monitoring. Urine samples were diluted 1 to 30 with water, and heavy isotope internal standards were added to each sample. Purines were separated by reversed-phase ultra-performance liquid chromatography (Waters UPLC BEH C18 column, 1.7 μm beads; 2.1×150 mm; Milford, Mass.) and quantified by selected reaction monitoring using a triple quadrupole mass spectrometer (TSQ Quantum-Ultra; THERMOFISHER SCIENTIFIC®, San Jose, Calif.) with a heated electrospray ionization source. The mobile phase was a linear gradient flow rate (300 μL/min) of 1% acetic acid in water (pH, 3; mobile phase A) and 100% methanol (mobile phase B) and was delivered with a Waters Acquity ultra-performance liquid chromatographic system. The gradient (A/B) settings were as follows: from 0 to 2 minutes, 99.6%/0.4%; from 2 to 3 minutes, to 98.0%/2.0%; from 3 to 4 minutes, to 85.0%/15.0%; and from 4 to 6.5 minutes, to 99.6%/0.4%. The instrument parameters were: sample tray temperature, 10° C.; column temperature, 50° C.; ion spray voltage, 4.0 kilovolts; ion transfer tube temperature, 350° C.; source vaporization temperature, 320° C.; Q2 CID gas, argon at 1.5 mTorr; sheath gas, nitrogen at 60 psi; auxillary gas, nitrogen at 35 psi; Q1/Q3 width, 0.7/0.7 units full-width half-maximum; scan width, 0.6 units; scan time, 0.01 seconds. […]
Purine Metabolome Measurement: Purines in urine were measured by mass spectrometry using selected reaction monitoring.(7,13) Urine samples were diluted 1 to 30 with water, and heavy isotope internal standards were added to each sample. Purines were separated by reversed-phase ultra-performance liquid chromatography (Waters UPLC BEH C18 column, 1.7 μm beads; 2.1×150 mm; Milford, Mass.) and quantified by selected reaction monitoring using a triple quadrupole mass spectrometer (TSQ Quantum-Ultra; THERMOFISHER SCIENTIFIC®, San Jose, Calif.) with a heated electrospray ionization source. […]

## Nc1nc2[nH]c(N)nc2c(=O)[nH]1 [8-AG, 8-Aminoguanine]
  urinary hypoxanthine levels: significantly reduced; also recorded: levels comparable to younger rats; also recorded: normalizes; also recorded: restored to younger levels
Compared with young rats
  urinary guanosine levels: similar; also recorded: recovered
Undetectable in untreated aged rats
  urinary levels of 8-AG: restored to younger levels
